From ChEMBL document CHEMBL4004795, “Polycycloiridals with a Cyclopentane Ring from Iris tectorum” (J Nat Prod, 2017) come the findings set out here.

The subject of one experiment is BV-2. Put plainly: Potency index, ratio of curcumin IC50 to compound IC50 for inhibition of LPS-induced nitric oxide production in mouse BV2 cells. Type of experiment: functional.
`CC(C)=CCC/C(C)=C\[C@H]1C=C(CO)[C@@H]2CC[C@]3([C@H](CCCO)/C(=C(/C)C=O)CC[C@]3(C)O)[C@@H]2O1`: the “Ratio IC50” value is reported as 3.

A further experiment deals with BV-2. Put plainly: Inhibition of LPS-induced nitric oxide production in mouse BV2 cells pretreated for 24 hrs followed by LPS-stimulation after 24 hrs by Griess assay. Type of experiment: functional, cell-based.
As usually defined, the IC50 is the point on the concentration scale where inhibition reaches its midpoint. On to `C=C(C)[C@H]1CC[C@@](C)(O)[C@@H]1/C=C/C(C)=C/[C@H]1C[C@@]23[C@H](OCCC[C@@H]2/C(=C(\C)C=O)CC[C@]3(C)O)O1`, for which the half-maximal inhibitory concentration (IC50) was above 10 µM.

On to `CC(C)=CCC/C(C)=C\[C@H]1C=C(CO)[C@@H]2CC[C@]3([C@H](CCCO)/C(=C(/C)C=O)CC[C@]3(C)O)[C@@H]2O1`, for which the IC50 was determined as 0.54 µM.

As for `C=C(C)[C@@H]1CC[C@](C)(O)[C@H]1/C=C/C(C)=C/[C@H]1C[C@@]23[C@H](OCCC[C@@H]2/C(=C(/C)C=O)CC[C@]3(C)O)O1`, the IC50 was above 10 µM.

Consider `C/C(C=O)=C1\CC[C@](C)(O)[C@]23C[C@H](/C=C(C)/C=C/[C@@H]4[C@@H](C(C)(C)O)CC[C@@]4(C)O)O[C@H]2OCCC[C@H]13`, for which the IC50 was above 10 µM.

Consider `C=C(C)[C@H]1CC[C@@](C)(O)[C@@H]1/C=C/C(C)=C/[C@H]1C[C@@]23[C@H](OCCC[C@@H]2/C(=C(/C)C=O)CC[C@]3(C)O)O1`, for which the IC50 is above 10 µM.

In the case of `COc1cc(/C=C/C(=O)CC(=O)/C=C/c2ccc(O)c(OC)c2)ccc1O` [CURCUMIN], the IC50 was found to be 2.36 µM.

In the case of `CC(/C=C/[C@@H]1[C@@H](C(C)(C)O)CC[C@@]1(C)O)=C\[C@H]1C[C@@]23[C@H](OCCC[C@@H]2/C(=C(\C)C=O)CC[C@]3(C)O)O1`, the IC50 is above 10 µM.

For `CC(/C=C/[C@H]1[C@H](C(C)(C)O)CC[C@]1(C)O)=C\[C@H]1C[C@@]23[C@H](OCCC[C@@H]2/C(=C(\C)C=O)CC[C@]3(C)O)O1`, the IC50 is above 10 µM.
